Source: a melting point compilation (Tetko et al.)

melting point	Structure (SMILES)
94 to 97 °C	O=C(O)c1ccc(NS(=O)(=O)c2ccc3c(c2)OCCO3)cc1
75 to 77 °C	O=C(CCl)NCCOc1ccc2c(c1)OCO2
262 to 264 °C	Cc1cc(C)c2c(c1)c(C)cc1nnc(S)n12
102 to 104 °C	C=CC(=O)Nc1ccc(OC)c(OC)c1
128 to 130 °C	Clc1nnc(-c2cccs2)c2ccccc12
73 to 75 °C	Cc1ccc(C(N)c2cccc(S(C)(=O)=O)c2)cc1 (stereo unspecified)
237 to 239 °C	COc1ccc(Cc2nc3sc4c(c3c(=O)[nH]2)CCC4)cc1OC
104 to 106 °C	CCc1ccc(C(C)=CC(=O)O)cc1
155 to 157 °C	Cc1ccc([N+](=O)[O-])cc1NC(=O)CCCl
119 to 121 °C	CNC(=O)c1cc(OC)ccc1N
205 to 207 °C	Cc1nc(S)sc1CC(=O)O
81 to 83 °C	CC(C)CC1(C)CC(=O)NC1=O (stereo unspecified)
195 to 197 °C	Cc1ccc(-n2c(C)c[nH]c2=O)cc1
54 to 56 °C	Cn1cnc(S(=O)(=O)Cl)c1Cl
225 to 227 °C	CN(C)c1ccc(C(=O)O)cn1
66 to 68 °C	COCCNc1ccc(C#N)cc1
171 to 173 °C	O=C(O)C1CCCN(C(=O)CCOc2ccccc2)C1 (stereo unspecified)
44 to 46 °C	BrCc1cnn(-c2ccccc2)n1
146 to 148 °C	O=C(O)c1cc(F)ccc1I
61 to 63 °C	Cc1ccc(C)n1-c1ccc(CN)cc1
202 to 204 °C	Nn1c(S)nnc1-c1ccc(Br)cc1
166 to 168 °C	COC(=O)c1ccc2nnn(O)c2c1
150 to 152 °C	O/N=C(\Cc1nccn1C(F)F)c1ccccc1
53 to 55 °C	C=CCNS(=O)(=O)C(C)(C)C
121 to 125 °C	COc1ccc(-n2c(CCl)nc3ccccc32)cc1
52 to 54 °C	CCOC(=O)c1sc2nc(CSc3ccccc3)nc(Cl)c2c1C

melting point	Structure (SMILES)
166 to 168 °C	Nc1nc2ccc(F)cn2n1
69 to 71 °C	Cc1oc2ccccc2c1C=O
74 to 76 °C	CCN(CC)S(=O)(=O)c1ccc(O)c(N)c1
157 to 159 °C	CN(CC(=O)O)C(=O)Nc1cccc([N+](=O)[O-])c1
41 to 46 °C	Cc1cc(C)c(C=O)cc1C
151 to 153 °C	O=C(O)CCCN1C(=O)CNC1=O
112 to 114 °C	NC(=S)C1CC1
45 to 47 °C	CC(=O)c1c(O)cc(F)cc1F
185 to 187 °C	CC1=NS(=O)(=O)NC(C)=C1CC(=O)O
232 to 234 °C	COc1ccc(C(N)C(=O)O)cc1 (stereo unspecified)
128 to 130 °C	O=C(O)CCNS(=O)(=O)c1ccccc1Cl
107 to 109 °C	c1cc2[nH]ccc2cn1
146 to 148 °C	CN(C)c1cc(N)ccn1
203 to 205 °C	CC1(c2cc3ccccc3o2)NC(=O)NC1=O (stereo unspecified)
148 to 150 °C	O=C(O)c1cc2c(s1)CCOC2
89 to 91 °C	CCCC(C#N)NC(=O)c1ccccc1 (stereo unspecified)
132 to 134 °C	Cc1cc(C)cc(C2(C(=O)O)CCC2)c1
83 to 85 °C	CC(=CC(=O)O)C(C)(C)C
143 to 145 °C	COc1ccccc1-n1cc(S(N)(=O)=O)cn1
142 to 144 °C	COc1ccc(Br)c(C(N)=S)c1
91 to 93 °C	Cc1nn(-c2ccc(F)cc2)cc1C=O
78 to 80 °C	CC(c1nc(-c2ccc(Cl)cc2)no1)N1CCNCC1 (stereo unspecified)
205 to 207 °C	N#Cc1cc(N)c(Cl)c([N+](=O)[O-])c1
174 to 176 °C	Cc1cc2c[nH]nc2c(C(=O)O)c1N
190 to 192 °C	COc1ccc2cc(C(=O)O)[nH]c2c1
48 to 50 °C	CCOc1c(OC)cc(C=O)cc1OC

melting point	Structure (SMILES)
251 to 253 °C	COc1ccc2c(=O)[nH]cnc2c1
144 to 146 °C	CC1(c2cccnc2)NC(=O)NC1=O (stereo unspecified)
284 to 286 °C	O=S1(=O)Nc2ncnn2-c2ccccc21
115 to 117 °C	CCc1cccc2c(CC#N)c[nH]c12
74 to 76 °C	O=C(O)CC1OCCc2ccccc21 (stereo unspecified)
84 to 86 °C	Cc1cc([N+](=O)[O-])cc(C)c1S(=O)(=O)Cl
179 to 181 °C	Cc1n[nH]c(=O)c(C(=O)O)c1C
82 to 84 °C	ClC(Cl)c1nnc(-c2ccccc2)o1
149 to 151 °C	Cn1cc(-c2nc3ccccn3c2N)cn1
133 to 135 °C	O=C(O)c1ccc(Br)cc1OC(F)F
39 to 41 °C	COCCOc1ccc(C#N)cn1
114 to 116 °C	N#Cc1ccc(C(Cl)C(N)=O)cc1 (stereo unspecified)
22 to 24 °C	c1ccc2c(c1)NCCCS2
46 to 48 °C	CC(C)CS(=O)(=O)CC(=O)O
107 to 109 °C	O=C1CCCN1c1cccc([N+](=O)[O-])c1
119 to 121 °C	Cc1ccc(I)c(C(=O)O)c1
84 to 86 °C	CC(C)(C)OC(=O)N(CC(=O)O)c1ccccc1
123 to 125 °C	NCC(c1ccccc1)c1c[nH]c2ccccc12 (stereo unspecified)
57 to 59 °C	CCS(=O)(=O)CC(=O)O
71 to 75 °C	N#Cc1cc(Cl)ccc1N=C=O
189 to 191 °C	NS(=O)(=O)c1ccc(Cl)nc1Cl
238 to 240 °C	O=c1ccn(C2CC2)c(S)n1
181 to 183 °C	CCOC(=O)c1sc2ncc(C#N)cc2c1C
37 to 39 °C	CC1(O)CCNC1 (stereo unspecified)
199 to 201 °C	O=C(O)c1cc(-c2ccccc2)ccc1Cl
140 to 142 °C	O=C(O)c1ccc(Br)nn1

melting point	Structure (SMILES)
218 to 220 °C	Nc1cccnc1C(=O)O
212 to 214 °C	Nc1nccn2ccnc12
50 to 52 °C	FC(F)(F)c1cnc(-n2cccn2)c(Cl)c1
42 to 44 °C	CC(C)(O)c1ccc(Br)cc1
170 to 172 °C	O=C1NCC(=O)N2CCOCC12 (stereo unspecified)
67 to 69 °C	C#CC1CCCN(C(=O)OC(C)(C)C)C1 (stereo unspecified)
88 to 90 °C	COC(=O)COc1cc(N)c(Cl)cc1C
115 to 117 °C	Cn1nc(Br)c2c(Cl)ncnc21
66 to 68 °C	O=C(O)CCc1nc(Cc2ccccc2)no1
146 to 148 °C	Cc1cc(NN)nc2ccccc12
174 to 176 °C	COc1ccc(OC)c(-c2nn(-c3ccccc3)cc2C(=O)O)c1
140 to 142 °C	O=C1NC(=O)C2(CCCC2)N1
137 to 139 °C	COc1cc(C)c(Br)cc1S(=O)(=O)Cl
119 to 121 °C	O=C(O)c1noc(-c2ccccc2Cl)n1
99 to 101 °C	N#Cc1cc(Cl)ccc1CO
80 to 82 °C	CC1CN(c2cc(N)cc(F)c2)CC(C)O1 (stereo unspecified)
134 to 136 °C	CC(O)c1cn(CC(=O)O)nn1 (stereo unspecified)
189 to 191 °C	Nc1cc2c(cc1C(=O)O)OCCO2
38 to 42 °C	CCCCCCOc1ccc(C=O)cc1OC
249 to 251 °C	O=C(O)c1cc2sc3ccccc3c2s1
299 to 301 °C	O=C(O)c1csc(-c2nnc[nH]2)n1
151 to 153 °C	Nc1ccccc1NC(=O)c1ccc2ccccc2n1
71 to 73 °C	O=S(=O)(c1ccc(S)nc1)N1CCOCC1

Structure (SMILES)	melting point
C#CCNC(=O)CBr	73 to 75 °C
Cc1noc(NC(=O)CCl)n1	161 to 163 °C
Cc1ccc(-c2nn(Cc3ccccc3)cc2C(=O)O)cc1	157 to 159 °C
Cc1cc(C=O)c(C)n1C(C)C	45 to 47 °C
CC(C)N1C2CCC1CC(O)C2 (stereo unspecified)	90 to 92 °C
